Structures are written as SMILES.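 Following 48 hours of exposure in 96-well plates, responses at five concentrations were used to interpolate endpoints linearly. At the GI50, growth is halved.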 Calls of active or inactive are those of the source. Rule as the data show it: active = GI50 up to about 1.1 µM and inactive = higher. Where a SMILES comes first, the peptide text is derived from it. [ ]: non-standard residue; d: D form. The star is where a group is joined. Phe(2-OMe) = COc1ccccc1C[CH](N)C(=O)O; Cbz = O=C(OCc1ccccc1)*; OBn = c1ccc(CO*)cc1 A value given as a limit tells only on which side of the number the result lay.

Common to all, as to test: NCI tumour cell line growth inhibition, 48 h
For test [1], the system named is ACHN.
Test [2] concerns SK-MEL-2.
Test [3] deals with OVCAR-4.
For test [4], the system named is KM12.
Test [5] concerns A498.
For test [6], the system named is SF-295.
The subject of test [7] is COLO 205.
For test [8], the system named is SN12C.
Test [9] deals with HCT-116.
The subject of test [10] is EKVX.
Test [11] deals with HOP-92.
Test [12] has as its system SK-MEL-5.
Test [13] deals with NCI-H23.
Test [14] deals with Hs-578T.
For test [15], the system named is BT-549.
The test system of test [16] is MDA-N.
Test [17] concerns MCF7.
Test [18] deals with MDA-MB-435.
The subject of test [19] is NCI/ADR-RES.
Test [20] has as its system T47D.

`O=C1CCC(=O)C1=NNc1cc(Cl)cc(Cl)c1`: the GI50 in [1] is > 100 µM (inactive); in [2], > 100 µM (inactive); in test [3], > 100 µM (inactive); in test [4], > 100 µM (inactive); in test [5] it was 15.6 µM (inactive); in [6], > 100 µM (inactive). The GI50 in test [7] was 36.6 µM (inactive); in [8] it was > 100 µM (inactive); in test [9], 76.4 µM (inactive); in test [10], > 100 µM (inactive); in [11], > 100 µM (inactive); in [12], 61.5 µM (inactive). Further, the GI50 in test [13] was > 100 µM (inactive).
With `CCOc1snc(C(Cl)(Cl)Cl)c1Cl`, the GI50 in test [1] is 7.85 µM (inactive); in [14], 18.9 µM (inactive); in [15] it was 10.7 µM (inactive); in test [3] it was 27.1 µM (inactive); in test [4], 19.8 µM (inactive); in [5], 11.7 µM (inactive). Besides, the GI50 in test [6] is 21.9 µM (inactive); in test [16] it was 21.9 µM (inactive); in test [7], 18.8 µM (inactive); in test [8] it was 23.8 µM (inactive); in test [17], 25 µM (inactive); in [9], 17.3 µM (inactive). For the same compound, the GI50 is 15.8 µM (inactive) in test [10], 18.3 µM (inactive) in [18], 7.83 µM (inactive) in test [12] and 12 µM (inactive) in [13].
Regarding `COC(=O)C1=CN(C2CCCCC2)C2(c3ccccc3)c3ccccc3C(=O)OC(=O)C12` (stereo unspecified), the GI50 in test [1], in [15], in [2], in test [3], in test [4] and in [19] was > 100 µM (inactive) in each case. The GI50 is > 100 µM (inactive) in test [5]; > 100 µM (inactive) in test [6]; 58.5 µM (inactive) in [16]; 72.8 µM (inactive) in [7]; > 100 µM (inactive) in test [8]; > 100 µM (inactive) in [17]. Moreover, the GI50 was 64.9 µM (inactive) in test [9]; > 100 µM (inactive) in test [10]; 46.5 µM (inactive) in test [18]; 39 µM (inactive) in test [11]; > 100 µM (inactive) in test [12]; > 100 µM (inactive) in [13].
On to `OCC(CO)C1c2cccc3ccc4cccc1c4c23`, for which the GI50 in test [1], in test [2], in test [3], in test [4], in test [5] and in test [6] was > 100 µM (inactive) throughout. Further, the GI50 in test [7] was > 100 µM (inactive); in test [8] it was > 100 µM (inactive); in test [9], > 100 µM (inactive); in test [10], 87.9 µM (inactive); in [11], 80.9 µM (inactive); in [12] it was > 100 µM (inactive). Also, in test [13], the GI50 is > 100 µM (inactive).
For the compound `NC(=O)NNC(=O)NC12CC3CC(CC(C3)C1)C2`, the GI50 in [1], in test [2], in [3], in test [4], in test [5] and in [6] was > 100 µM (inactive) throughout. The GI50 in [7], in test [8], in [9], in [10], in test [11] and in test [12] was > 100 µM (inactive) throughout. Besides, the GI50 in test [13] is > 100 µM (inactive).
Consider `COc1cc2c(/C=C3/C(=O)Nc4ccc(O)cc43)c(Cl)n(Cc3ccccc3)c2cc1C`, for which the GI50 in test [1] is 0.628 µM (active); in [14] it was 0.354 µM (active); in test [2] it was 3.73 µM (inactive); in [3], 4.2 µM (inactive); in test [4], 0.265 µM (active); in [19], 0.574 µM (active). Moreover, the GI50 is 0.323 µM (active) in [6]; 1.04 µM (active) in test [7]; 6.17 µM (inactive) in [8]; 1.18 µM (inactive) in test [17]; 0.421 µM (active) in test [9]; 4.93 µM (inactive) in test [20]. For the same compound, the GI50 in test [10] was 5.62 µM (inactive); in test [18], 0.078 µM (active); in test [11], 12.8 µM (inactive); in test [12], 0.266 µM (active); in test [13], 0.618 µM (active).
For the compound `CCCNC(=S)NNC(=O)CSc1nc(-c2ccccc2)c(-c2ccccc2)[nH]1`, the GI50 in test [1] is 46.7 µM (inactive); in test [2], > 100 µM (inactive); in [3], 45.1 µM (inactive); in [4], 33 µM (inactive); in [5] it was 77.6 µM (inactive); in test [6], 54.6 µM (inactive). Besides, the GI50 is 39 µM (inactive) in test [7]; 74 µM (inactive) in test [8]; 94.4 µM (inactive) in test [9]; 37 µM (inactive) in [10]; 23.5 µM (inactive) in [11]; 25.9 µM (inactive) in test [12]. For the same compound, in test [13], the GI50 is 76 µM (inactive).
Turning to `Cc1cc(C)nc(NS(=O)(=O)c2ccc(NC(=O)c3ccc(Cl)c4c(Nc5ccc(S(=O)(=O)Nc6nc(C)cc(C)n6)cc5)c5ccccc5nc34)cc2)n1`, the GI50 in test [1] is 26.9 µM (inactive); in test [2], 13.7 µM (inactive); in test [3], 11 µM (inactive); in [4] it was 21.8 µM (inactive); in test [5] it was 23.8 µM (inactive); in test [6], 25.4 µM (inactive). Besides, the GI50 in test [7] was 15.9 µM (inactive); in test [8] it was 3.14 µM (inactive); in test [9] it was 1.82 µM (inactive); in [10], 48.1 µM (inactive); in test [11], 2.08 µM (inactive); in test [12] it was 17.7 µM (inactive). For the same compound, the GI50 in [13] was 3.75 µM (inactive).
Regarding `N#Cc1nc(CN2C(=O)c3ccccc3C2=O)oc1N`, the GI50 in test [1], in test [14], in [2], in test [3], in test [4] and in test [19] was > 100 µM (inactive) in each case. The GI50 in [5], in [6], in [16], in test [7], in [8] and in test [17] was > 100 µM (inactive) each time. The GI50 in test [9], in [20], in [18], in [11] and in test [12] was > 100 µM (inactive) each time.
With `N=C(N)NCCCC(NC(=O)c1cccc2c(=O)c3ccccc3[nH]c12)C(=O)O` (stereo unspecified), the GI50 in [1], in test [14], in test [2], in test [3], in test [4] and in test [19] was > 100 µM (inactive) throughout. For the same compound, the GI50 in test [5], in test [6], in [16], in test [7], in test [8] and in test [17] was > 100 µM (inactive) throughout. For the same compound, the GI50 in [9] was > 100 µM (inactive); in [10] it was > 100 µM (inactive); in test [18], > 100 µM (inactive); in test [11], 58.9 µM (inactive); in test [12] it was > 100 µM (inactive); in test [13], > 100 µM (inactive).
With `CC(C)CC12CC3CCC(CNC1=O)C32C` (stereo unspecified), the GI50 in test [1], in test [2], in [3], in test [4], in test [5] and in test [6] was > 100 µM (inactive) in each case. The GI50 in test [7] was > 100 µM (inactive); in test [8], > 100 µM (inactive); in [9], 78.9 µM (inactive); in test [10] it was > 100 µM (inactive); in test [11] it was > 100 µM (inactive); in test [12], > 100 µM (inactive). Besides, in test [13], the GI50 is > 100 µM (inactive).
For the compound `COC(=O)C(Cc1ccccc1OC)NC(=O)C(CC(=O)OCc1ccccc1)NC(=O)OCc1ccccc1` (stereo unspecified) (Cbz-Asp(OBn)-[Phe(2-OMe)]-OMe; configuration not given here), the GI50 in [1] was > 100 µM (inactive); in test [14], > 100 µM (inactive); in [15] it was > 100 µM (inactive); in [2] it was > 100 µM (inactive); in test [4] it was > 100 µM (inactive); in [5], 88.1 µM (inactive). The GI50 was 95.7 µM (inactive) in test [16]; 46.3 µM (inactive) in test [7]; 54 µM (inactive) in test [17]; 55.5 µM (inactive) in test [9]; > 100 µM (inactive) in test [10]; > 100 µM (inactive) in [11]. Moreover, the GI50 in test [12] and in test [13] was > 100 µM (inactive) each time.
In the case of `COc1ccc(/C=C/c2cc(OC)cc(OC)c2)cc1` [TRISMETHOXYRESVERATROL], the GI50 in [1] is 7.08 µM (inactive); in test [2], 6.07 µM (inactive); in test [3], 18.9 µM (inactive); in test [4], 4.17 µM (inactive); in [5], 6.18 µM (inactive); in test [6] it was 4.38 µM (inactive). Besides, the GI50 is 3.41 µM (inactive) in test [7]; 9.95 µM (inactive) in [8]; 4.17 µM (inactive) in test [9]; > 22.4 µM (inactive) in test [10]; 8.07 µM (inactive) in [11]; 4.23 µM (inactive) in test [12]. The GI50 in test [13] is 6.98 µM (inactive).

Values taken from ChEMBL document CHEMBL1201862, “PubChem BioAssay data set” (2004).
